US7612211B2, “Benzimidazole TRPV1 inhibitors” (Janssen Pharmaceutica N.V., priority 2006, dated 2009)

Molecular target: T1, hTRPV1 (Homo sapiens, UniProt Q8NER1)
T1 construct: expressed in transfected cells; host or cells: HEK293
Experiment: Human TRPV1 (hTRPV1) functional assay, FLIPR intracellular Ca2+, capsaicin challenge
Type: cell-based
Conditions: HEK293 cells expressing hTRPV1, capsaicin 0.030 μM challenge; for inhibition at 0.2 µM: test concentration of 0.2 μm, read-out: percent inhibition (symbol b); for IC50: derived from a variety of test concentrations, read-out: IC50 value (symbol c); for inhibition at 0.5 µM: test concentration of 0.5 μm, read-out: percent inhibition (symbol a)
Experimental: The functional activity of the test compounds was determined by measuring changes in intracellular calcium concentration using a Ca^++-sensitive fluorescent dye and FLIPR™ technology. Increases in Ca^++ concentration were readily detected upon challenge with capsaicin.
HEK293 cells expressing hTRPV1 were grown on poly-D-lysine coated 384 well black-walled plates (BD 354663) and 1 day later loaded with Calcium 3 Dye for 35 min at 37° C., 5% CO2 and then for 25 min at room temperature, and subsequently tested for agonist-induced increases in intracellular Ca^2+ levels using FLIPR™ technology. Cells were challenged with test compounds (at varying concentrations) and intracellular Ca^2+ was measured for 5 min prior to the addition of capsaicin to all wells to achieve a final concentration of 0.030 μM eliciting ˜80% maximal response.
EC50 or IC50 values were determined from concentration-response studies, which were generated using the average of quadruplicate wells for each data point. The symbol “a” represents percent inhibition obtained at a test concentration of 0.5 μm; the symbol “b” represents percent inhibition obtained at a test concentration of 0.2 μm; the symbol “c” represents an IC50 value (nM) derived from a variety of test concentrations. The term “NA” means that the result is not applicable for a particular compound.

T1 sequence (Q8NER1 whole entry): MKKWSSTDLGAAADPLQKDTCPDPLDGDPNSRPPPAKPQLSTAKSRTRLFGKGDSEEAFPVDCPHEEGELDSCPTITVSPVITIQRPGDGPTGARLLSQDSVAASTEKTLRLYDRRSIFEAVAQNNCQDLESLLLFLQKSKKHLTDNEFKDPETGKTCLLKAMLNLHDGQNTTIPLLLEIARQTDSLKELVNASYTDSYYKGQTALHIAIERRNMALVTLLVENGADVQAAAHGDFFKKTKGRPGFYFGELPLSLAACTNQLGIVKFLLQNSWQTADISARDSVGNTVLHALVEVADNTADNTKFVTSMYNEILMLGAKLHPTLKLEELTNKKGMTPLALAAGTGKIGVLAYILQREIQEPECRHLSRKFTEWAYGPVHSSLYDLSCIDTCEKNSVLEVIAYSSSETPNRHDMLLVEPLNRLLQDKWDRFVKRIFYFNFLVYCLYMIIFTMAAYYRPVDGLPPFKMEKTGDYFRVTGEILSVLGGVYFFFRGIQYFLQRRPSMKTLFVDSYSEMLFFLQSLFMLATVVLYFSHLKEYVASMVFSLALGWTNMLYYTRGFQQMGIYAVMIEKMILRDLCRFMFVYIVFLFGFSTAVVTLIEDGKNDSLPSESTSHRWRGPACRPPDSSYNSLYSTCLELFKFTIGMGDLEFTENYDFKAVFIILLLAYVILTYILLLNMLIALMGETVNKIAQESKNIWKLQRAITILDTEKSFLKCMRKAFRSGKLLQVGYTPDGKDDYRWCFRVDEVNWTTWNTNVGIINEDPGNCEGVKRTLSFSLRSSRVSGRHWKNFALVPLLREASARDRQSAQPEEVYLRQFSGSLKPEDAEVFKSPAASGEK

| SMILES | inhibition at 0.2 µM | IC50 | inhibition at 0.5 µM |
| --- | --- | --- | --- |
| CS(=O)(=O)c1ccccc1-c1ccc2[nH]c(COc3cc(F)c(F)c(F)c3)nc2c1 [Cpd 68, 5-(2-methanesulfonyl-phenyl)-2-(3,4,5-trifluoro-phenoxymethyl)-1H-benzoimidazole] | 59% |  |  |
| Cc1ccc(OCc2nc3cc(-c4ccccc4S(C)(=O)=O)ccc3[nH]2)cc1 [Cpd 76, 5-(2-methanesulfonyl-phenyl)-2-p-tolyloxymethyl-1H-benzoimidazole] | 96% | 31 nM |  |
| NS(=O)(=O)c1ccccc1-c1ccc2[nH]c(COc3ccncc3)nc2c1 [Cpd 38, 2-[2-(pyridin-4-yloxymethyl)-1H-benzoimidazol-5-yl]-benzenesulfonamide] |  |  | 13% |
| CCOc1ccc(OCc2nc3cc(-c4ccccc4S(C)(=O)=O)ccc3[nH]2)cc1 [Cpd 81, 2-(4-ethoxy-phenoxymethyl)-5-(2-methanesulfonyl-phenyl)-1H-benzoimidazole] | 96% | 85 nM |  |
| NS(=O)(=O)c1ccccc1-c1ccc2[nH]c(CSc3ccc(OC(F)(F)F)cc3)nc2c1 [Cpd 43, 2-[2-(4-trifluoromethoxy-phenylsulfanylmethyl)-1H-benzoimidazol-5-yl]-benzenesulfonamide] | 87% | 123 nM |  |
| CS(=O)(=O)c1ccccc1-c1ccc2[nH]c(COc3ccc(F)c(Cl)c3)nc2c1 [Cpd 67, 2-(3-chloro-4-fluoro-phenoxymethyl)-5-(2-methanesulfonyl-phenyl)-1H-benzoimidazole] | 70% |  |  |
| NS(=O)(=O)c1ccccc1-c1ccc2[nH]c(COc3ccc(F)cc3)nc2c1 [Cpd 5, 2-[2-(4-fluoro-phenoxymethyl)-1H-benzoimidazol-5-yl]-benzenesulfonamide] |  |  | 71% |
| CC(C)(O)c1ccccc1-c1ccc2[nH]c(COc3cccc(C(F)(F)F)c3)nc2c1 [Cpd 24, 2-{2-[2-(3-trifluoromethyl-phenoxymethyl)-1H-benzoimidazol-5-yl]-phenyl}-propan-2-ol] |  | 156 nM | 92% |
| NS(=O)(=O)c1ccccc1-c1ccc2[nH]c(COc3cccc(F)c3)nc2c1 [Cpd 4, 2-[2-(3-fluoro-phenoxymethyl)-1H-benzoimidazol-5-yl]-benzenesulfonamide] |  |  | 67% |
| CNS(=O)(=O)c1ccccc1-c1ccc2[nH]c(COc3ccc(S(=O)(=O)C(F)(F)F)cc3)nc2c1 [Cpd 20, N-methyl-2-[2-(4-trifluoromethanesulfonyl-phenoxymethyl)-1H-benzoimidazol-5-yl]-benzenesulfonamide] |  | 20 nM | 100% |
| CS(=O)(=O)c1ccccc1-c1ccc2[nH]c(COc3cccc(F)c3)nc2c1 [Cpd 55, 2-(3-fluoro-phenoxymethyl)-5-(2-methanesulfonyl-phenyl)-1H-benzoimidazole] | 20% |  |  |
| NS(=O)(=O)c1ccccc1-c1ccc2[nH]c(COc3ccc4ccccc4c3)nc2c1 [Cpd 36, 2-[2-(naphthalen-2-yloxymethyl)-1H-benzoimidazol-5-yl]-benzenesulfonamide] |  | 32 nM | 98% |
| CS(=O)(=O)c1ccccc1-c1ccc2[nH]c(COc3ccc(Cl)cc3F)nc2c1 [Cpd 66, 2-(4-chloro-2-fluoro-phenoxymethyl)-5-(2-methanesulfonyl-phenyl)-1H-benzoimidazole] | 85% | 81 nM |  |

Continued, values first:

| inhibition at 0.2 µM | IC50 | inhibition at 0.5 µM | SMILES |
| --- | --- | --- | --- |
| 90% | 22 nM |  | CC(C)(O)CS(=O)(=O)c1ccccc1-c1ccc2[nH]c(COc3ccc(C(F)(F)F)cc3)nc2c1 [Cpd 159, 2-methyl-1-{2-[2-(4-trifluoromethyl-phenoxymethyl)-1H-benzoimidazol-5-yl]-benzenesulfonyl}-propan-2-ol] |
| 20% |  |  | CCC(Oc1ccc(C(F)(F)F)cc1)c1nc2cc(-c3ccccc3S(N)(=O)=O)ccc2[nH]1 (centres unmarked) [Cpd 157, 2-{2-[1-(4-trifluoromethyl-phenoxy)-propyl]-1H-benzoimidazol-5-yl}-benzenesulfonamide] |
|  |  | 16% | Cc1ccccc1-c1ccc2[nH]c(COc3ccc(C(F)(F)F)cc3)nc2c1 [Cpd 107, 5-o-tolyl-2-(4-trifluoromethyl-phenoxymethyl)-1H-benzoimidazole] |
|  |  | 8% | CS(=O)(=O)Nc1cccc(-c2ccc3[nH]c(COc4ccc(C(F)(F)F)cc4)nc3c2)c1 [Cpd 102, N-{3-[2-(4-trifluoromethyl-phenoxymethyl)-1H-benzoimidazol-5-yl]-phenyl}-methanesulfonamide] |
|  |  | 15% | Oc1cccc(-c2ccc3[nH]c(COc4ccc(C(F)(F)F)cc4)nc3c2)c1 [Cpd 120, 3-[2-(4-trifluoromethyl-phenoxymethyl)-1H-benzoimidazol-5-yl]-phenol] |
|  |  | 14% | CS(=O)(=O)c1cccc(-c2ccc3[nH]c(COc4ccc(C(F)(F)F)cc4)nc3c2)c1 [Cpd 99, 5-(3-methanesulfonyl-phenyl)-2-(4-trifluoromethyl-phenoxymethyl)-1H-benzoimidazole] |
|  | 68 nM | 99% | NS(=O)(=O)c1ccccc1-c1ccc2[nH]c(NCc3ccc(C(F)(F)F)cc3)nc2c1 [Cpd 136, 2-[2-(4-trifluoromethyl-benzylamino)-1H-benzoimidazol-5-yl]-benzenesulfonamide] |
| 13% |  |  | O=S(=O)(c1ccccc1-c1ccc2[nH]c(COc3ccc(C(F)(F)F)cc3)nc2c1)C(F)(F)F [Cpd 158, 5-(2-trifluoromethanesulfonyl-phenyl)-2-(4-trifluoromethyl-phenoxymethyl)-1H-benzoimidazole] |
| 31% |  |  | Cc1cc(C)cc(OCc2nc3cc(-c4ccccc4S(C)(=O)=O)ccc3[nH]2)c1 [Cpd 90, 2-(3,5-dimethyl-phenoxymethyl)-5-(2-methanesulfonyl-phenyl)-1H-benzoimidazole] |
|  | 13 nM |  | CC(O)c1ccccc1-c1ccc2[nH]c(COc3ccc(C(F)(F)F)cc3)nc2c1 (centres unmarked) [Cpd 143, 1-{2-[2-(4-trifluoromethyl-phenoxymethyl)-1H-benzoimidazol-5-yl]-phenyl}-ethanol] |
|  |  | 11% | COC(=O)c1cccc(-c2ccc3[nH]c(COc4ccc(C(F)(F)F)cc4)nc3c2)c1 [Cpd 130, 3-[2-(4-trifluoromethyl-phenoxymethyl)-1H-benzoimidazol-5-yl]-benzoic acid methyl ester] |
|  |  | 8% | NS(=O)(=O)c1cccc(-c2ccc3[nH]c(COc4ccc(C(F)(F)F)cc4)nc3c2)c1 [Cpd 104, 3-[2-(4-trifluoromethyl-phenoxymethyl)-1H-benzoimidazol-5-yl]-benzenesulfonamide] |
| 76% | 78 nM |  | CC(Oc1ccc(C(F)(F)F)cc1)c1nc2cc(-c3ccccc3S(N)(=O)=O)ccc2[nH]1 (centres unmarked) [Cpd 156, 2-{2-[1-(4-trifluoromethyl-phenoxy)-ethyl]-1H-benzoimidazol-5-yl}-benzenesulfonamide] |
|  |  | 3% | Cc1ccc(-c2ccc3[nH]c(COc4ccc(C(F)(F)F)cc4)nc3c2)cc1 [Cpd 109, 5-p-tolyl-2-(4-trifluoromethyl-phenoxymethyl)-1H-benzoimidazole] |
|  |  | 12% | Nc1ccc(-c2ccc3[nH]c(COc4ccc(C(F)(F)F)cc4)nc3c2)cc1 [Cpd 124, 4-[2-(4-trifluoromethyl-phenoxymethyl)-1H-benzoimidazol-5-yl]-phenylamine] |
